US11439641B2, “Pyrimidine JAK inhibitors for the treatment of skin diseases” (THERAVANCE BIOPHARMA R&D IP, LLC, priority 2019, dated 2022)

What was measured:
JAK1 = JAK1 (Homo sapiens (Human), UniProt P23458); assay: Biochemical JAK and Tyk2 Kinase Assays (LanthaScreen), JAK1; conditions: 25 μM ATP (Km); pIC50 converted to pKi by Cheng-Prusoff
Protocol: (§1) Assay 1: Biochemical JAK and Tyk2 Kinase Assays
(§2) A panel of four LanthaScreen JAK biochemical assays (JAK1, 2, 3 and Tyk2) were carried in a common kinase reaction buffer (50 mM HEPES, pH 7.5, 0.01% Brij-35, 10 mM MgCl2, and 1 mM EGTA). Recombinant GST-tagged JAK enzymes and a GFP-tagged STAT1 peptide substrate were obtained from Life Technologies.
(§3) Serially or discretely diluted compounds were pre-incubated with each of the four JAK enzymes and the substrate in white 384-well microplates (Corning) at ambient temperature for 1 h. ATP was subsequently added to initiate the kinase reactions in 10 μL total volume, with 1% DMSO. The final enzyme concentrations for JAK1, 2, 3 and Tyk2 are 4.2 nM, 0.1 nM, 1 nM, and 0.25 nM respectively; the corresponding Km ATP concentrations used are 25 μM, 3 μM, 1.6 μM, and 10 μM; while the substrate concentration is 200 nM for all four assays. Kinase reactions were allowed to proceed for 1 hour at ambient temperature before a 10 μL preparation of EDTA (10 mM final concentration) and Tb-anti-pSTAT1 (pTyr701) antibody (Life Technologies, 2 nM final concentration) in TR-FRET dilution buffer (Life Technologies) was added. The plates were allowed to incubate at ambient temperature for 1 h before being read on the EnVision reader (Perkin Elmer). Emission ratio signals (520 nm/495 nm) were recorded and utilized to calculate the percent inhibition values based on DMSO and background controls.
(§4) For dose-response analysis, percent inhibition data were plotted vs. compound concentrations, and IC50 values were determined from a 4-parameter robust fit model with the Prism software (GraphPad Software). Results were expressed as pIC50 (negative logarithm of IC50) and subsequently converted to pKi (negative logarithm of dissociation constant, Ki) using the Cheng-Prusoff equation.

JAK3 = JAK3 (Homo sapiens (Human), UniProt P52333); assay: Biochemical JAK and Tyk2 Kinase Assays (LanthaScreen), JAK3; conditions: 1.6 μM ATP (Km); pIC50 converted to pKi by Cheng-Prusoff
Protocol: as §1, §2, §3, §4

Aqueous Solubility Assay = conditions: PBS buffer pH 7.4; maximum upper limit 1,000 μM
[1] = Solubility Assay in Organic Excipients; conditions: maximum upper limit 20,000 μM; for Solubility in MCT (mg/mL): medium chain triglycerides (MCT)
[2] = tested on: IL-2 stimulated pSTAT5 in Tall-1 T cells; assay: Inhibition of IL-2 Stimulated pSTAT5 in Tall-1 T Cells; assay type: cell-based; conditions: Tall-1 human T cell line, IL-2 300 ng/mL, AlphaLisa
Protocol: Assay 2: Inhibition of IL-2 Stimulated pSTAT5 in Tall-1 T Cells
The potency of test compounds for inhibition of interleukin-2 (IL-2) stimulated STATS phosphorylation was measured in the Tall-1 human T cell line (DSMZ) using AlphaLisa. Because IL-2 signals through JAK1/3, this assay provides a measure of JAK1/3 cellular potency.
Phosphorylated STATS was measured via the AlphaLISA SureFire Ultra pSTAT5 (Tyr694/699) kit (PerkinElmer). Human T cells from the Tall-1 cell line were cultured in a 37° C., 5% CO2 humidified incubator in RPMI (Life Technologies) supplemented with 15% Heat Inactivated Fetal Bovine Serum (FBS, Life Technologies), 2 mM Glutamax (Life Technologies), 25 mM HEPES (Life Technologies) and 1× Pen/Strep (Life Technologies). Compounds were serially diluted in DMSO and dispensed acoustically to empty wells. Assay media (phenol red-free DMEM (Life Technologies) supplemented with 10% FBS (ATCC)) was dispensed (4 μL/well) and plates shaken at 900 rpm for 10 mins. Cells were seeded at 45,000 cells/well in assay media (4 μL/well), and incubated at 37° C., 5% CO2 for 1 hour, followed by the addition of IL-2 (R&D Systems; final concentration 300 ng/mL) in pre-warmed assay media (4 μL) for 30 minutes. After cytokine stimulation, cells were lysed with 6 ul of 3× AlphaLisa Lysis Buffer (PerkinElmer) containing 1× PhosStop and Complete tablets (Roche). The lysate was shaken at 900 rpm for 10 minutes at room temperature (RT). Phosphorylated STATS was measured via the pSTAT5 AlphaLisa kit (PerkinElmer). Freshly prepared acceptor bead mixture was dispensed onto lysate (51) under green filtered <100 lux light. Plates were shaken at 900 rpm for 2 mins, briefly spun down, and incubated for 2 hrs at RT in the dark. Donor beads were dispensed (5 μL) under green filtered <100 lux light. Plates were shaken at 900 rpm for 2 minutes, briefly spun down, and incubated overnight at RT in the dark. Luminescence was measured with excitation at 689 nm and emission at 570 nm using an EnVision plate r reader (PerkinElmer) under green filtered <100 lux light.
To determine the inhibitory potency of test compounds in response to IL-2, the average emission intensity of beads bound to pSTAT5 was measured in a human T cell line. IC50 values were determined from analysis of the inhibition curves of signal intensity versus compound concentration. Data are expressed as pIC50 (negative decadic logarithm IC50) values (mean±standard deviation).

Chain of JAK3 (P52333 whole entry): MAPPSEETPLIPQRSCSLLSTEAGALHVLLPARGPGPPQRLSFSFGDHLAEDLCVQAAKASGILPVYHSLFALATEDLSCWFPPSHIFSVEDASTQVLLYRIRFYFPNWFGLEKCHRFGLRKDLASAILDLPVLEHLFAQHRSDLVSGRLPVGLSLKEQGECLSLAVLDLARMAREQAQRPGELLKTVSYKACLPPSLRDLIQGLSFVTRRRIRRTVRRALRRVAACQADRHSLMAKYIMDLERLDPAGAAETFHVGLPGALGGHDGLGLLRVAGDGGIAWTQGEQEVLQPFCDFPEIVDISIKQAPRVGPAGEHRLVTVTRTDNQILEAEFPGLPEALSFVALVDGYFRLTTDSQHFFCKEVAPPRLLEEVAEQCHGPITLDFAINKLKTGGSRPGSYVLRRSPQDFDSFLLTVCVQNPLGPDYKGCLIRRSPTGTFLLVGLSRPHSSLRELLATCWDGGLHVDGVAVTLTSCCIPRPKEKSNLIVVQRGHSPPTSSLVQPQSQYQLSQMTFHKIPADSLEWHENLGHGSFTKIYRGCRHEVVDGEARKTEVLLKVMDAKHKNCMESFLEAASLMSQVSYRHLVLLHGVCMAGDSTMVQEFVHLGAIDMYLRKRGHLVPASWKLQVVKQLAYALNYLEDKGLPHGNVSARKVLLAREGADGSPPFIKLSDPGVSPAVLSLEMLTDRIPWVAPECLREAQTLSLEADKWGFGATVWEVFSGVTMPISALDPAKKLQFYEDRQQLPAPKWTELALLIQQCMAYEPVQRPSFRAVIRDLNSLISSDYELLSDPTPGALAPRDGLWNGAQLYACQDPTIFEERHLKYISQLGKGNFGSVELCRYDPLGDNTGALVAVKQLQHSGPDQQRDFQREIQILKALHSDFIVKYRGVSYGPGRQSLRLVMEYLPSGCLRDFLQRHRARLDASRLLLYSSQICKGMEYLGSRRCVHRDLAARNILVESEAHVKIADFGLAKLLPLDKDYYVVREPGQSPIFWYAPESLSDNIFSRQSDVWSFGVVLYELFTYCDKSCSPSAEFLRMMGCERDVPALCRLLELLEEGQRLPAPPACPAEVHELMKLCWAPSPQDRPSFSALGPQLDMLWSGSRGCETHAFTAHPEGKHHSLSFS
Chain of JAK1 (P23458 whole entry): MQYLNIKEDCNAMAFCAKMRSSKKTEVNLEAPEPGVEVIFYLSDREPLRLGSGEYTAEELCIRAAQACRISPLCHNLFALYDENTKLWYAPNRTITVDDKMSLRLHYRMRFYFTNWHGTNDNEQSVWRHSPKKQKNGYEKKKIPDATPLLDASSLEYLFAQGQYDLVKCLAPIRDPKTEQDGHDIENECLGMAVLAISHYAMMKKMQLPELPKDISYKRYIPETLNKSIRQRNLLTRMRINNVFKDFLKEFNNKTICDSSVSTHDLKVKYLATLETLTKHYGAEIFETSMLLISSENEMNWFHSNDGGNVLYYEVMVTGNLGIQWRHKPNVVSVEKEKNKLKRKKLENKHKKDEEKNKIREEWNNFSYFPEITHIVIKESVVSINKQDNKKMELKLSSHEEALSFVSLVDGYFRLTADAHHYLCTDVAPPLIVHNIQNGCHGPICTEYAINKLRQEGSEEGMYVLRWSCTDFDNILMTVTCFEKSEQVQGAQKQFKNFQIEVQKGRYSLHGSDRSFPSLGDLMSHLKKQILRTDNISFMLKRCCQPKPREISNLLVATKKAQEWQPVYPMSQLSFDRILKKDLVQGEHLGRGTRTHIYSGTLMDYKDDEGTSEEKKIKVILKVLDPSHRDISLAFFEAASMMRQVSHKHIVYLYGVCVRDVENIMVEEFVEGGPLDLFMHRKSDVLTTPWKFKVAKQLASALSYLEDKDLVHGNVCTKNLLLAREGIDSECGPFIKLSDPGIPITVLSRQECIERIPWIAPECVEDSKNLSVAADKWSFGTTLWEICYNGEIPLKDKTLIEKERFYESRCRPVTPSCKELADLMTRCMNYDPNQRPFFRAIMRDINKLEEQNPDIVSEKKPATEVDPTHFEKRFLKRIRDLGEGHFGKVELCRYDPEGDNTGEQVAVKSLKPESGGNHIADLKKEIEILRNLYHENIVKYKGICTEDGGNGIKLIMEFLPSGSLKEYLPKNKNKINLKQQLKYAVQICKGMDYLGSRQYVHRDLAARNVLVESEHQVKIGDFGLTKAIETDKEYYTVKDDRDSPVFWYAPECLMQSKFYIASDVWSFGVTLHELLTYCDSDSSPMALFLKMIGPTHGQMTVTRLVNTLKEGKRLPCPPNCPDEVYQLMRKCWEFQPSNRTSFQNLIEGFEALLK

Row | SMILES | JAK 1 (pKi) (JAK1) | JAK 3 (pKi) (JAK3) | Solubility at PH 7.4 (μmol) (Aqueous Solubility Assay) | Solubility in PEG400 (mg/mL) [1] | Solubility in Diisopropyl adipate (mg/mL) [1] | Solubility in MCT (mg/mL) [1] | Solubility in Propylene glycol (mg/mL) [1] | Tall-1 IL2 pSTAT5 (pIC50) [2]
1 | CCS(=O)(=O)N1[C@@H]2CCC[C@H]1C[C@H](N(C)c1nc(Nc3cc(C)[nH]n3)c(F)c(C3CCOC3)n1)C2 (stereo partly drawn) [Compound 44, N2-((1R,3s,5S)-9-(ethylsulfonyl)-9-azabicyclo[3.3.1]nonan-3-yl)-5-fluoro-N2-methyl-N4-(5-methyl-1H-pyrazol-3-yl)-6-(tetrahydrofuran-3-yl)pyrimidine-2,4-diamine] | A (A represents a pKi value ≥10 (Ki≤0.1 nM)) | C (C represents a pKi value between 8 and 9 (Ki between 10 nM and 1 nM)) | E (E represents a value below 10) | – | – | – | – | –
2 | CCS(=O)(=O)N1[C@@H]2CCC[C@H]1C[C@H](N(C)c1nc(Nc3cc(C)[nH]n3)cc(O[C@H]3CCOC3)n1)C2 [Compound 33, N^2-((1R,3s,5S)-9-(ethylsulfonyl)-9-azabicyclo[3.3.1]nonan-3-yl)-N2-methyl-N4-(5-methyl-1H-pyrazol-3-yl)-6-(((S)-tetrahydrofuran-3-yl)oxy)pyrimidine-2,4-diamine] | A (A represents a pKi value ≥10 (Ki≤0.1 nM)) | B (B represents a pKi value between 9 and 10 (Ki between 1 nM and 0.1 nM)) | D (D represents a value between 10 and 50) | B (B represents a value between 5 and 10) | C (C represents a value below 5) | C (C represents a value below 5) | A (A represents a value above 10) | –
3 | CCS(=O)(=O)N1[C@@H]2CCC[C@H]1C[C@H](N(C)c1nc(Nc3cc(C)[nH]n3)cc(O[C@@H]3CCOC3)n1)C2 [Compound 18, N^2-((1R,3s,5S)-9-(ethylsulfonyl)-9-azabicyclo[3.3.1]nonan-3-yl)-N2-methyl-N4-(5-methyl-1H-pyrazol-3-yl)-6-(((R)-tetrahydrofuran-3-yl)oxy)pyrimidine-2,4-diamine] | A (A represents a pKi value ≥10 (Ki≤0.1 nM)) | B (B represents a pKi value between 9 and 10 (Ki between 1 nM and 0.1 nM)) | D (D represents a value between 10 and 50) | B (B represents a value between 5 and 10) | B (B represents a value between 5 and 10) | C (C represents a value below 5) | B (B represents a value between 5 and 10) | –
4 | CCC(=O)N1[C@@H]2CCC[C@H]1CC(N(C)c1nc(Nc3cc(C)[nH]n3)cc(OC3CCOC3)n1)C2 (stereo partly drawn) [Compound 46, 1-((1R,3s,5S)-3-(methyl(4-((5-methyl-1H-pyrazol-3-yl)amino)-6-((tetrahydrofuran-3-yl)oxy)pyrimidin-2-yl)amino)-9-azabicyclo[3.3.1]nonan-9-yl)propan-1-one] | A (A represents a pKi value ≥10 (Ki≤0.1 nM)) | B (B represents a pKi value between 9 and 10 (Ki between 1 nM and 0.1 nM)) | D (D represents a value between 10 and 50) | – | – | – | – | A (A represents a pIC50 value ≥8.0)
5 | Cc1cc(Nc2cc(OCC3COC3)nc(N(C)[C@@H]3C[C@H]4CCC[C@@H](C3)N4C(=O)CC3CC3)n2)n[nH]1 [Compound 40, 2-cyclopropyl-1-((1R,3s,5S)-3-(methyl(4-((5-methyl-1H-pyrazol-3-yl)amino)-6-(oxetan-3-ylmethoxy)pyrimidin-2-yl)amino)-9-azabicyclo[3.3.1]nonan-9-yl)ethan-1-one] | A (A represents a pKi value ≥10 (Ki≤0.1 nM)) | B (B represents a pKi value between 9 and 10 (Ki between 1 nM and 0.1 nM)) | D (D represents a value between 10 and 50) | – | – | – | – | A (A represents a pIC50 value ≥8.0)
6 | Cc1cc(Nc2cc(C3CCOCC3)nc(N(C)[C@@H]3C[C@H]4CCC[C@@H](C3)N4C(=O)CC3CC3)n2)n[nH]1 [Compound 4, 2-cyclopropyl-1-((1R,3s,5S)-3-(methyl(4-((5-methyl-1H-pyrazol-3-yl)amino)-6-(tetrahydro-2H-pyran-4-yl)pyrimidin-2-yl)amino)-9-azabicyclo[3.3.1]nonan-9-yl)ethan-1-one] | A (A represents a pKi value ≥10 (Ki≤0.1 nM)) | B (B represents a pKi value between 9 and 10 (Ki between 1 nM and 0.1 nM)) | E (E represents a value below 10) | C (C represents a value below 5) | C (C represents a value below 5) | C (C represents a value below 5) | C (C represents a value below 5) | –
7 | Cc1cc(Nc2cc(C3CCOC3)nc(N(C)[C@@H]3C[C@H]4CCC[C@@H](C3)N4C(=O)CC3CC3)n2)n[nH]1 (stereo partly drawn) [Compound 7, 2-cyclopropyl-1-((1R,3s,5S)-3-(methyl(4-((5-methyl-1H-pyrazol-3-yl)amino)-6-(tetrahydrofuran-3-yl)pyrimidin-2-yl)amino)-9-azabicyclo[3.3.1]nonan-9-yl)ethan-1-one] | A (A represents a pKi value ≥10 (Ki≤0.1 nM)) | C (C represents a pKi value between 8 and 9 (Ki between 10 nM and 1 nM)) | E (E represents a value below 10) | – | – | – | – | A (A represents a pIC50 value ≥8.0)
8 | Cc1cc(Nc2cc(C3CCCO3)nc(N(C)[C@@H]3C[C@H]4CCC[C@@H](C3)N4CC(=O)N3CCCC3)n2)n[nH]1 (stereo partly drawn) [Compound 16, 2-((1R,3s,5S)-3-(methyl(4-((5-methyl-1H-pyrazol-3-yl)amino)-6-(tetrahydrofuran-2-yl)pyrimidin-2-yl)amino)-9-azabicyclo[3.3.1]nonan-9-yl)-1-(pyrrolidin-1-yl)ethan-1-one] | A (A represents a pKi value ≥10 (Ki≤0.1 nM)) | C (C represents a pKi value between 8 and 9 (Ki between 10 nM and 1 nM)) | A (A represents a value above 500) | C (C represents a value below 5) | C (C represents a value below 5) | C (C represents a value below 5) | C (C represents a value below 5) | –
